The source of these data is PMC6017805 (2018).

What all share (experiment): UV-Vis titration (D/Δεapp vs D plot)
What all share (details): phosphate buffer 50 mM pH 7.4 (Figure 2; methods say 100 mM), 25 °C, 4a 50 μM

Assay [1] deals with GC Box [Poly(dGGGCGG)-Poly(dCCCGCC)] (DNA, polymer) GGGCGG/CCGCCC.
Assay [2] has as its system [Poly(dA)-Poly(dT)] (DNA, polymer) A/T.
Assay [3] relates to [Poly(dG)-Poly(dC)] (DNA, polymer) G/C.
The subject of assay [4] is AT Box [Poly(dTATAAT)-Poly(dATATTA)] (DNA, polymer) TATAAT/ATTATA.

As for `N[C@@H](CCCCN1C(=O)c2cccc3cccc(c23)C1=O)C(=O)NCCNC(=O)[C@@H](N)CCCCN1C(=O)c2cccc3cccc(c23)C1=O`, the Kb amounted to 1910 M⁻¹ in assay [1], 9080 M⁻¹ in assay [2], 1150 M⁻¹ in assay [3] and 9710 M⁻¹ in assay [4].
